The values below come from patent EP0397859A1, “PYRAZINE DERIVATIVES AND MEDICINAL PREPARATION CONTAINING SAME” (TERUMO KABUSHIKI KAISHA, priority 1987, dated 1989).

Test [1] deals with platelet aggregation. Nature of the test: Platelet aggregation-inhibiting action in rabbit platelet-rich plasma (aggregometer). The class given is cell-based. The settings on record: Oryctolagus cuniculus, 0.05 h, rabbit PRP, 37°C, 3 min incubation. As for the experimental part: Blood was drawn from the carotid artery of a rabbit using a syringe containing 1/10 volume of a 3.8% solution of sodium citrate. The blood was centrifuged to obtain platelet-rich plasma (PRP: 5 x 10^5 cells/µl).
In a cuvette were placed 200 µl of said PRP and 25 µl of a physiological saline solution. The cuvette was set on an aggregometer and warmed at 37°C for 2 min. Into the cuvette was then added 1.25 µl of an ethanol solution of a pyrazine derivative to be tested. After incubated for 3 min., a solution of a platelet-aggregation inducer, arachidonic acid or collagen, was added thereto. Measurements were made for platelet aggregation using an aggregometer (Hematracer IV; Niko Biosciences K.K.). […] Acetylsalicylic acid was used as a comparison.
The 50% inhibitory concentration as shown in the table means the concentration of the solution of a pyrazine derivative required for inhibiting the aggregation of platelets by introducing said pyrazine derivative when the platelet aggregatiqn in the absence of any pyrazine derivative of the invention is taken as 100%.

Test [2] deals with T1, cyclooxygenase (Oryctolagus cuniculus, UniProt O97554).
T1 construct: The washed platelets thus produced were used as an enzyme source for cyclooxygenase; from tissue; host or cells: washed platelets from rabbit carotid artery blood
T1 sequence (O97554 31-606): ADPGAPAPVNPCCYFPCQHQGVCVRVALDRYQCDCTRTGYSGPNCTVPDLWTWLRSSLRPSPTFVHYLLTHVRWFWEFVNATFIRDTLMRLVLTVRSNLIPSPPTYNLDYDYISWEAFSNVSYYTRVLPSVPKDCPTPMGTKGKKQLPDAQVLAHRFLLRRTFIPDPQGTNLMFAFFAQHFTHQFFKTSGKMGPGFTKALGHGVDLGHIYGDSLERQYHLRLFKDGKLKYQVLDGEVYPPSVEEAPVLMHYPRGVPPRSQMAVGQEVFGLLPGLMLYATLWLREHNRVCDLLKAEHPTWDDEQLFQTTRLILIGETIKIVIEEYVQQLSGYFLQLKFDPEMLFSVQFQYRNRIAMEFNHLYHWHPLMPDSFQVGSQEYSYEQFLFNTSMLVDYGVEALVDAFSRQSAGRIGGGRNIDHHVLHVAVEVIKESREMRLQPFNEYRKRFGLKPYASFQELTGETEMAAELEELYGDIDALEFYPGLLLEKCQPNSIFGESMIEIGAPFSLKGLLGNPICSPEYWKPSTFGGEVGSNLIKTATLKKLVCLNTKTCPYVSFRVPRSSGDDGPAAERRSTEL
Nature of the test: Cyclooxygenase-inhibiting activity, washed platelets as enzyme source, 14C-arachidonic acid, TLC radiochromatogram. The class given is biochemical. As to conditions: washed rabbit platelets, 37°C for 3 min; sum of radioactivities of prostaglandin E2, prostaglandin D2 and HHT; read-out: 50% inhibitory concentration (mole). Here is the method: In a centrifuge tube was collected 9 volumes of blood from the carotid artery of a rabbit per volume of a 3.8% solution of sodium citric acid contained therein using a canula. Platelet-rich plasma was obtained by centrifugation. To the platelet-rich plasma was added a 77 mM solution of EDTA in a volume of 1/10 per volume of said plasma. After mixing thoroughly, the mixture was subjected to centrifugation at 2500 r.p.m. at room temperature for 10 min. The supernatant was discarded, and the platelets were suspended in approximately 3 ml of a wash (134 mM of sodium chloride, 15 mM of trisaminomethane, 1 mM of EDTA and 5 mM of D-glucose dissolved in distilled water with a pH adjusted to 7.4 with 1N-hydrogen chloride), and the suspension was centrifuged at 2000 rpm at room temperature for 10 min. The supernatant was discarded, and the precipitated platelets were suspended in a 1/15 M phosphate buffer solution at pH 8.0 to adjust the number of the platelets to 6-8 x 10^5 cells/µl.
The washed platelets thus produced were used as an enzyme source for cyclooxygenase. […]
Development was made with a developing solvent (chloroform/methanol/acetic acid/water = 90:8:1:0.8) by approximately 18 cm, and then the inhibiting activity was determined by measuring sum of the radioactivities of prostaglandin E2' prostaglandin D2 and HHT by a radiochromatogram scanner.

Where [3] appears, read: aggregation caused by arachidonic acid (80 µM), read-out: 50% aggregation-inhibitory concentration (mole) Arachidonic acid.
[4] abbreviates: aggregation caused by collagen (15 µg/ml), read-out: 50% aggregation-inhibitory concentration (mole) Collagen.

Where two headings read alike, the source gives them in different places.

Regarding `CCc1nc(CC)c(-c2ccccc2)nc1-c1ccccc1` [Example 1, 2,6-diethyl-3,5-diphenylpyrazine], the IC50 in test [1] (setting [3]) is 1700 nM; in test [1] (setting [4]) it was 390 nM.

As for `CCc1ncc(-c2ccccc2)nc1-c1ccccc1` [Example 2, 2-ethyl-3,5-diphenylpyrazine], the results for the IC50 in test [1] (setting [3]) and in test [1] (setting [4]) were 6000 nM and 19000 nM, respectively.

Turning to `COc1ccc(-c2nc3c(nc2-c2ccc(OC)cc2)CCCC3)cc1` [Example 3, 2,3-bis(p-methoxyphenyl)-5,6,7,8-tetrahydroquinoxaline], the values for the IC50 in test [1] (setting [3]) and in test [1] (setting [4]) were 15 nM and 24 nM, respectively.

For the compound `COc1ccc(-c2nc3ccccc3nc2-c2ccc(OC)cc2)cc1` [Example 4, 2,3-bis(p-methoxyphenyl)quinoxaline], the results for the IC50 in test [1] (setting [3]) and in test [1] (setting [4]) were 38 nM and 9.8 nM, respectively.

In the case of `Clc1ccccc1Cc1cnc(-c2ccccc2)c(-c2ccccc2)n1` [Example 5, 2,3-diphenyl-5-(o-chlorobenzyl)pyrazine], the figures for the IC50 in test [1] (setting [3]) and in test [1] (setting [4]) were 4400 nM and 36000 nM, respectively.

Consider `Clc1cccc(Cc2cnc(-c3ccccc3)c(-c3ccccc3)n2)c1` [Example 6, 2,3-diphenyl-5-(m-chlorobenzyl)pyrazine], for which the IC50 in test [1] (setting [3]) was found to be 4500 nM; in test [1] (setting [4]), 44000 nM.

As for `Clc1ccc(Cc2cnc(-c3ccccc3)c(-c3ccccc3)n2)cc1` [Example 7, 2,3-diphenyl-5-(p-chlorobenzyl)pyrazine], the IC50 in test [1] (setting [3]) amounted to 82000 nM; in test [1] (setting [4]), 34000 nM.

Consider `Brc1ccc(Cc2cnc(-c3ccccc3)c(-c3ccccc3)n2)cc1` [Example 8, 2,3-diphenyl-5-(p-bromobenzyl)pyrazine], for which the IC50 in test [1] (setting [3]) came out at 16000 nM; in test [1] (setting [4]), 100000 nM.

Consider `CN(C)c1ccc(Cc2cnc(-c3ccccc3)c(-c3ccccc3)n2)cc1` [Example 9, 2,3-diphenyl-5-(p-dimethylaminobenzyl)pyrazine], for which the IC50 turned out to be 84000 nM in test [1] (setting [3]) and 74000 nM in test [1] (setting [4]).

As to `c1ccc(-c2ncc(Cc3cccc4ccccc34)nc2-c2ccccc2)cc1` [Example 10, 2,3-diphenyl-5-(l-naphthyl)methylpyrazine], the IC50 is 43000 nM in test [1] (setting [3]) and 31000 nM in test [1] (setting [4]).

In the case of `COc1ccc(-c2nc(Cl)c(Cl)nc2-c2ccc(OC)cc2)cc1` [Example 11, 2,3-bis(p-methoxyphenyl)-5,6-dichloropyrazine], the IC50 in test [1] (setting [3]) came to 14 nM; in test [1] (setting [4]) it was 220 nM.

Take `COc1ccc(-c2ncc(Cl)nc2-c2ccc(OC)cc2)cc1` [Example 12, 2,3-bis(p-methoxyphenyl)-5-chloropyrazine]: the IC50 came out at 3.8 nM in test [1] (setting [3]) and 9.8 nM in test [1] (setting [4]).

As to `COc1ccc(-c2ncc(C#N)nc2-c2ccc(OC)cc2)cc1` [Example 13, 2,3-bis(p-methoxyphenyl)-5-cyanopyrazine], the IC50 was 24 nM in test [1] (setting [3]), 15 nM in test [1] (setting [4]) and 5000 nM in test [2].

Turning to `COc1ccc(-c2ncc(C(=O)O)nc2-c2ccc(OC)cc2)cc1` [Example 14, 2,3-bis(p-methoxyphenyl)-pyrazine-5-carboxylic acid], the values for the IC50 in test [1] (setting [3]) and in test [1] (setting [4]) were 260 nM and 5000 nM, respectively.

In the case of `COC(=O)c1cnc(-c2ccc(OC)cc2)c(-c2ccc(OC)cc2)n1` [Example 15], the IC50 worked out at 3 nM in test [1] (setting [3]) and 130 nM in test [1] (setting [4]).

Take `Cc1cnc(-c2ccc(C#N)cc2)c(-c2ccc(C#N)cc2)n1` [X=-CN, R2=H, R3=-CH3]: the IC50 in test [1] (setting [3]) and in test [1] (setting [4]) was 1000 nM in each case.
